The values that follow come from US10889543B2, “Fine-tune modulators of neuronal excitability for neuropsychiatric disorders” (THE BOARD OF REGENTS OF THE UNIVERSITY OF TEXAS SYSTEM, priority 2016, dated 2021).

The target of assay [1] is T1, Nav1.6 channel in the presence of FGF14 (Homo sapiens, UniProt Q9UQD0).
T1 construct: expressed in transfected cells; host or cells: HEK-Nav1.6 cells transiently transfected with FGF14-GFP
The assay is described as follows: Whole-cell patch clamp of Na+ currents in HEK-Nav1.6 cells expressing FGF14-GFP. The assay is classed as cell-based. The method, then:
(§1) To determine the role of compounds of the invention in Nav1.6 channels alone and Nav1.6 channels in the presence of FGF14, 2×2 experimental groups using compound ZL0181, an exemplary embodiment, were designed. HEK-Nav1.6 cells were transiently transfected with GFP or […] and treated with either DMSO (0.15% final concentration, control group) or ZL0181 (20 μM, final concentration) 20-60 min prior to the experiments. […] Thus, ZL0181 inhibits peak current amplitude of Na1.6 current.
The role of ZOL181 in Nav1.6 channel in the presence of FGF14 was then investigated. […] Furthermore, the role of ZL0181 to modulate the biophysical properties of Nav1.6 channel in the presence of FGF14 was investigated. In consistency with previous studies, voltage dependence of activation and steady-state inactivation kinetics changes in the cells expressing FGF14-GFP compared with control (FIG. 3C). […] Thus, ZL0181 works synergistically with FGF14 to regulate the peak current amplitude as well as the inactivation kinetics.
(§2) Furthermore, using a range of doses from 1 μM to 100 μM a dose-response profile for ZL0181 in HEK293-Nav1.6 cells alone and HEK-Nav1.6 cells transfected with FGF14 was developed.
(§3) HEK-Nav1.1, […] HEK-Nav1.6 were maintained in medium composed of equal volumes of DMEM and F-12 (Invitrogen) supplemented with 0.05% glucose, 0.5 mm pyruvate, 10% fetal bovine serum, 100 units/ml penicillin, 100 μg/ml streptomycin incubated at 37° C. with 5% CO2. For selection of Nav1.1 and Nav1.2, 500 μg/ml G418 (Invitrogen) was used, and for selection of Nav1.6, 80 μg/ml G418 (Invitrogen) was used. Cells were transfected according to manufacturer's instructions at 90-100% confluency using Lipofectamine 2000 (Invitrogen). See e.g., Shavkunov, A., et al. Assay and drug development technologies 10(2):148-160 (2012).
(§4) Detailed methods for path-clamp experiments is known in the art. See e.g., Ali, S. R., et al., Journal of Biological Chemistry 291:11268 (2016).
In general terms: In patch-clamp work, channel activity is measured electrically.

For another assay, the target named is T2, Nav1.1 channels (Homo sapiens, UniProt P35498).
T2 construct: expressed in transfected cells
The assay is described as follows: Patch clamp of Na+ currents in Nav1.1 channels. Type of assay: cell-based. The method, then: (§5) The role of ZL0181 in regulating Nav1.1 and Nav1.2 channels was also investigated.
as §3, §4

The next assay addresses T3, Nav1.6 C-tail (Homo sapiens, UniProt Q9UQD0).
T3 construct: FGF14WT and Nav1.6 C-tail were immobilized; made in house
The assay is described as follows: Surface plasmon resonance spectroscopy, immobilized Nav1.6 C-tail. Type of assay: binding. Particulars: SPR, 25° C., 10-200 μM. The protocol:
(§6) Surface Plasmon Resonance Spectroscopy. SPR experiments were performed on a Biacore T100 instrument (Biacore GE), and the interaction between FGF14 to Nav1.6 channel was studied at 25° C. To analyze the effects of ZL0181 on channel binding, FGF14WT and Nav1.6 C-tail were immobilized using acetate 5.5 with amine coupling kit on CM5 sensor chip, and obtaining RU 3000 and 4500 respectively. No protein was coupled to the control flow channel of the chip. ZL0181 (5-200 μM) in HBS-P+(50 μl/min) buffer ([…], 150 mM NaCl, 0.005% (v/v) P20), pH 7.4 were injected over the chip for 180 s. Next, HB S-P+ buffer without protein were passed over the chip for 180 s to monitor dissociation, and the chip surface was then regenerated with NaCl (200 mM). For each injection of ZL0181 binding to the FGF14WT or the Nav1.6, the nonspecific responses were subtracted from the responses obtained for control prior to data analysis. Maximal equilibrium responses were plotted against the concentrations of ZL0181, and the equilibrium dissociation constant (KD) was calculated from the fitted saturation binding curve. Fitted binding curves were judged to be accurate based on the distribution of the residuals (even and near zero). Graphs were plotted in GraphPad Prism 6 Software (La Jolla, Calif.).
(§7) The role of ZL0181 was further determined by surface plasmon resonance spectroscopy. […]
A general note: In SPR one partner is held on a chip, and binding of the other changes the refractive index at the surface.

The target of another assay is T4, Nav1.2 channels (Homo sapiens, UniProt Q99250).
T4 construct: expressed in transfected cells
T4 sequence (Q99250 whole entry): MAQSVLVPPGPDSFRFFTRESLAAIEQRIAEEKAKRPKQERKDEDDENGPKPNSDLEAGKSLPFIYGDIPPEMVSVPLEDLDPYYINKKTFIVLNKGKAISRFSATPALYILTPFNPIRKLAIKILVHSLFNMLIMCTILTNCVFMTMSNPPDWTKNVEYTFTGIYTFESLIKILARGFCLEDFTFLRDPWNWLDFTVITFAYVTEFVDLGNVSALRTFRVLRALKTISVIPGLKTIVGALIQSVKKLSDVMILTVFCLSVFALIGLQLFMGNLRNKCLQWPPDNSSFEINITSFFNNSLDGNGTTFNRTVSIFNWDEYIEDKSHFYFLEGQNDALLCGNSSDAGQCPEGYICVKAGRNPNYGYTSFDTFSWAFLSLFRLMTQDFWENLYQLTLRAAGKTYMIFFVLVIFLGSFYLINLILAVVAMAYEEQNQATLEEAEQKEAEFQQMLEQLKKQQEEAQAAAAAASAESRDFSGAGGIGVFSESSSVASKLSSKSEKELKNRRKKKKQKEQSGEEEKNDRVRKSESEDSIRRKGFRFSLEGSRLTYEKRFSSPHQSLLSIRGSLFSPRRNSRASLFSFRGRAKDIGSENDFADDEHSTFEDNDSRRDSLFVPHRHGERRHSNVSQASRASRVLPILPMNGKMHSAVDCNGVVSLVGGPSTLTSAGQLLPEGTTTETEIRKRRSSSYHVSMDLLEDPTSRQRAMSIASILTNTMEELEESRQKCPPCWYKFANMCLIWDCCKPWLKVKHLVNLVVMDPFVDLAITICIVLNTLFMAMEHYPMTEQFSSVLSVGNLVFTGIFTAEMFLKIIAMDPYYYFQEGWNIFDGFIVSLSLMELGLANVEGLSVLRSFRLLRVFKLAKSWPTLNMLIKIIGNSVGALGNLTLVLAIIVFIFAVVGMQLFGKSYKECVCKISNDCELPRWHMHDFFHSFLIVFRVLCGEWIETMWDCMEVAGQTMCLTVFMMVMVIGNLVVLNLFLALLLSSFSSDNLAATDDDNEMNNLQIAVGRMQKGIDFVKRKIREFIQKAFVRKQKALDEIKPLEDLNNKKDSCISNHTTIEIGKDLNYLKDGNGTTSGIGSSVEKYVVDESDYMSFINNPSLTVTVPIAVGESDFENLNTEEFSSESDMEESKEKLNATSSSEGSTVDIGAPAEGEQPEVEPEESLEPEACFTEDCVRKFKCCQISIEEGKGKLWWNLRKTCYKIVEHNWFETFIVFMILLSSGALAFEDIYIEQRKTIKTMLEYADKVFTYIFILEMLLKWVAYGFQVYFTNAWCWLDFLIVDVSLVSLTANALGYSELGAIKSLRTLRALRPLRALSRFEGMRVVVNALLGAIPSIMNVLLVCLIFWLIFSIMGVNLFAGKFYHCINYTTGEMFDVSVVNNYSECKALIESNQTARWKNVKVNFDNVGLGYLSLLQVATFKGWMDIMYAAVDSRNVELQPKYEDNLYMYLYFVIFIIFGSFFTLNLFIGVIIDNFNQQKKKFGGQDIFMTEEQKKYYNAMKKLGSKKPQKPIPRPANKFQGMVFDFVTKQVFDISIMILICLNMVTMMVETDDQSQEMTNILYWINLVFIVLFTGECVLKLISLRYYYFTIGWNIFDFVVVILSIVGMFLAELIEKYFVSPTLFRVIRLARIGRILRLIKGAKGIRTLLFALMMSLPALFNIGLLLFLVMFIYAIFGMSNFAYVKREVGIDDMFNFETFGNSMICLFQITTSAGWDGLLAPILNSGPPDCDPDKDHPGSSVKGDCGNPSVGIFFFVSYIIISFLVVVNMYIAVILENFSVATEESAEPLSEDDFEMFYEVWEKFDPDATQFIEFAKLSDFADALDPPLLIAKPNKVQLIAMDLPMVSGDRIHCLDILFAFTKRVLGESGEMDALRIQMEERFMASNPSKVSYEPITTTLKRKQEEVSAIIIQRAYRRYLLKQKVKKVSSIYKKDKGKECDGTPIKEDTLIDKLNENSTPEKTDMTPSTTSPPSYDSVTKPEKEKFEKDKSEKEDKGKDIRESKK
The assay can be described thus: Patch clamp of Na+ currents in Nav1.2 channels. Type of assay: cell-based. The protocol: as §5, §3, §4

The target in the next assay is T5, FGF14 (Homo sapiens, UniProt Q92915).
T5 construct: made in house
T5 sequence (Q92915 64-252 isoform Q92915-2 limits assumed): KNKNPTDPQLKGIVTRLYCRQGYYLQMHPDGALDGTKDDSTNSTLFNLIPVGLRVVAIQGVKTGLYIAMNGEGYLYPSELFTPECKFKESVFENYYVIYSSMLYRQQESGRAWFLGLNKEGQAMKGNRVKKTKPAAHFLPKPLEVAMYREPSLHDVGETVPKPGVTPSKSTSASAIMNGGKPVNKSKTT
The assay is described as follows: Surface plasmon resonance spectroscopy, immobilized FGF14. The assay is classed as binding. Particulars: SPR, 25° C., 10-200 μM. The protocol: as §6, §7

The next assay deals with T6, Nav1.6 channels (Homo sapiens, UniProt Q9UQD0).
T6 construct: expressed in transfected cells; host or cells: HEK-Nav1.6 (HEK293 stably expressing Nav1.6, G418 selection)
T6 sequence (Q9UQD0 whole entry): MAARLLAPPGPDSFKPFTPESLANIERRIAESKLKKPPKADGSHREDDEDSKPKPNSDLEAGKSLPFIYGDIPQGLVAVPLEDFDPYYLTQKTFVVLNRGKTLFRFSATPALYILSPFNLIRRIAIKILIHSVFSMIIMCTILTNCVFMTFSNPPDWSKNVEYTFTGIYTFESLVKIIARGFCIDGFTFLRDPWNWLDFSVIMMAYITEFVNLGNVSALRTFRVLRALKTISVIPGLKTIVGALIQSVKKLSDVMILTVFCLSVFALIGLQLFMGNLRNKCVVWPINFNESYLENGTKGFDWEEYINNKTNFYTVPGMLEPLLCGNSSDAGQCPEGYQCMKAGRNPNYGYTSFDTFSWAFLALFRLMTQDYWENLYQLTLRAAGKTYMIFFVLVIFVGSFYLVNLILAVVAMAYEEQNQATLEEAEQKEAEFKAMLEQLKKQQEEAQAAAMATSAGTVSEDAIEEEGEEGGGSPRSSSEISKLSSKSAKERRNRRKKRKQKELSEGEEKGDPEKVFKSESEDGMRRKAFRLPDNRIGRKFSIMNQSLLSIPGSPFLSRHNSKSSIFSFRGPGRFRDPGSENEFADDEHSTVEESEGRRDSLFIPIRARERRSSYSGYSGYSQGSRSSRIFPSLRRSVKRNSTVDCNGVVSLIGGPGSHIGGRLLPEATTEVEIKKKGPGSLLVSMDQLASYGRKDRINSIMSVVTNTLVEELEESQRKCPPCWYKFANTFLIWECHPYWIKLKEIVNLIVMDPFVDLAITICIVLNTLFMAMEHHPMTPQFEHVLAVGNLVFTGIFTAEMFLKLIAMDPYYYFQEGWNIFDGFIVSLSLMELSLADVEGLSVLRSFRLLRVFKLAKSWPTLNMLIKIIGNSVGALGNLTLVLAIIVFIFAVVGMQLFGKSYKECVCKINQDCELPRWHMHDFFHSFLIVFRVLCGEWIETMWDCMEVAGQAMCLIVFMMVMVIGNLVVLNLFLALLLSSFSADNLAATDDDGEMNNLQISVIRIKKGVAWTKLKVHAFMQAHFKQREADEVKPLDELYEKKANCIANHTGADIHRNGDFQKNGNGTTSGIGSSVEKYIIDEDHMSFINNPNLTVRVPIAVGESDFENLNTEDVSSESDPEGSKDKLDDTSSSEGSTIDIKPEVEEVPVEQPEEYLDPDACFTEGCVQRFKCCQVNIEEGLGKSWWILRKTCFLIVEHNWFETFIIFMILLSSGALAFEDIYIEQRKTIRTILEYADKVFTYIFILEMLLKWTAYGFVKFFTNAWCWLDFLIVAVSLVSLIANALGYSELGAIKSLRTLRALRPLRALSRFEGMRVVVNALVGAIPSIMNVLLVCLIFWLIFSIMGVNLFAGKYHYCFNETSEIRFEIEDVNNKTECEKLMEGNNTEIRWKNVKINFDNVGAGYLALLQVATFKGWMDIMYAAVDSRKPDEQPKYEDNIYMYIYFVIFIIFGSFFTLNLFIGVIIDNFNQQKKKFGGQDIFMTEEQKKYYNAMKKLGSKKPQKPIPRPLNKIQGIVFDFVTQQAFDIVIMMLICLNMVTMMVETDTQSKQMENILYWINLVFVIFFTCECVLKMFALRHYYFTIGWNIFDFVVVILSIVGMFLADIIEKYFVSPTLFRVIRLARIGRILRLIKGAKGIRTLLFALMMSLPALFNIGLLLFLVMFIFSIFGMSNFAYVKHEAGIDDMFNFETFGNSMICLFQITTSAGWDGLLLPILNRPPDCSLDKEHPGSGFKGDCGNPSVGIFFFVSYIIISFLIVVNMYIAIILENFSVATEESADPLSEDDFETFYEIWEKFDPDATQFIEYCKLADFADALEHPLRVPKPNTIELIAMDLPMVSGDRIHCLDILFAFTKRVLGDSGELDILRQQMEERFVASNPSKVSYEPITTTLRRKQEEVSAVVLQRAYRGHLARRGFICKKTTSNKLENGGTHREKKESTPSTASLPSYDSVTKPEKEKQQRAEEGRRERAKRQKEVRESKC
The assay is described as follows: Whole-cell patch clamp of Na+ currents in HEK-Nav1.6 cells expressing GFP (Nav1.6 channels alone). Type of assay: cell-based. The method, then:
as §1, §2, §3, §4

Residues, ends and D or L forms follow the SMILES beside them. *: point of attachment. Cbz = O=C(OCc1ccccc1)*; Boc = CC(C)(C)OC(=O)*

T1 sequence (Q9UQD0 whole entry): as above
T3 sequence (Q9UQD0 1797-1980 limits assumed): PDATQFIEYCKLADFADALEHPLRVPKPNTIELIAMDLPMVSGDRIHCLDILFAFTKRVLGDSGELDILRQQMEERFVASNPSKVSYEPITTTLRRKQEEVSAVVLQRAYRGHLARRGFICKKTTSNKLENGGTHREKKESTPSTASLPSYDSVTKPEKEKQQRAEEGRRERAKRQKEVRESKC

One may read the IC50 as the midpoint of a concentration-inhibition curve. The term Kd denotes the equilibrium constant for the complex coming apart. Take `CC(C)C[C@H](NC(=O)[C@H](Cc1ccccc1)NC(=O)OCc1ccccc1)C(=O)N1CCC[C@H]1C(=O)N[C@@H](CCCCNC(=O)OC(C)(C)C)C(N)=O` [ZL0181, Z-Phe-Leu-Pro-Lys(Boc)-NH2] (Cbz-FLPK(Boc)-NH2): the “steady-state inactivation (depolarizing shift induced by FGF14-GFP)” value in assay [1] (FGF14-GFP-expressing HEK-Nav1.6 cells, 20 μM) is “rescued the depolarizing shift of the steady-state inactivation induced by FGF14-GFP expression back to control levels”. The “Na+ current peak amplitude (peak current density)” value in assay [1] (FGF14-GFP-expressing HEK-Nav1.6 cells, 20 μM, n=19, DMSO control −18.1±3.8) is recorded as −7.4±4.4 pA/pF. For the same compound, the concentration for half-maximal inhibition (IC50) in assay [1] (HEK-Nav1.6 cells transfected with FGF14, doses 1 μM to 100 μM, read-out: IC50, inhibition of Nav1.6 encoded currents in presence of FGF14) is 11.5 ± 1.3 µM; on Nav1.6 channels (HEK293-Nav1.6 cells alone, doses 1 μM to 100 μM, read-out: IC50, inhibition of Nav1.6 encoded currents), 19.7 ± 5.7 µM. In addition, at Nav1.1 channels, the “peak current amplitude in Nav1.1 channels” value is given as “suppresses peak current amplitude”. The “synergy with FGF14 on Na+ current and rescue of V1/2 of inactivation, Nav1.1” value on Nav1.1 channels (in presence of FGF14) is “does neither act synergistically to further suppress Na+ current in presence of FGF14 or rescue the voltage-dependence inactivation property”. Also, the Kd on Nav1.6 C-tail amounted to 212 µM; at FGF14, 13 µM. Further, at Nav1.2 channels, the “peak current amplitude in Nav1.2 channels” value is “suppresses peak current amplitude”. Also, the “synergy with FGF14 on Na+ current and rescue of V1/2 of inactivation, Nav1.2” value at Nav1.2 channels (in presence of FGF14) is “does neither act synergistically to further suppress Na+ current in presence of FGF14 or rescue the voltage-dependence inactivation property”. The “activation and inactivation properties of Nav channel alone” value on Nav1.6 channels (20 μM, HEK-Nav1.6 cells with GFP) was “does not change activation and inactivation properties”. Besides, on Nav1.6 channels (HEK-Nav1.6 cells with GFP, pretreated with 20 μM, n=12, DMSO control −73.8±13.6), the “Nav1.6-mediated peak current density” value was −20.9±3.4 pA/pF.
